# Values of other authors in patent US6515132B2, “Process for the preparation of rosiglitazone maleate” (priority 2000, dated 2003).
# Details: dose given in diet; comparative activity data for thiazolidinediones being clinically progressed
row,Compound,Minimum effective dose [μmol/kg diet]
1,O=C1NC(=O)C(Cc2ccc3c(c2)CC[C@H](Cc2ccccc2)O3)S1 (stereo partly drawn) [Englitazone],200
2,"CN(CCOc1ccc(CC2SC(=O)NC2=O)cc1)c1ccccn1.O=C(O)/C=C\C(=O)O (stereo not drawn) [Rosiglitazone maleate, 5-[4-[2-(N-methyl-N-(2-pyridyl)amino)ethoxy]benzyl]thiazolidine-2,4-dione maleate]",3
3,"CN(CCOc1ccc(CC2SC(=O)NC2=O)cc1)c1ccccn1 (stereo not drawn) [Rosiglitazone, 5-[4-[2-(N-methyl-N-(2-pyridyl)amino)ethoxy]benzyl]thiazolidine-2,4-dione]",3
